From paper PMC9137037 (Frontiers in Oncology, 2022) come the findings set out here.

Where no end group is shown, it is not given here.

One test has as its system BALB/c mice. Nature of the test: ELISA antibody titers in sera of immunized BALB/c mice. The class given is in vivo. The conditions noted are these: mouse; Figure 1C. How it is done:
The peptide vaccine MVF-PD-1(92-110) was dissolved in sterile water and mixed with either ISA 720 or ISA 51 (1:1) ratio. We utilized the well-established murine colon carcinoma cell line CT26 tumor model in syngeneic BALB/c mice to evaluate the effects of vaccination previously described ([23]). Briefly, 6–8-week-old female BALB/c mice were immunized with the peptide vaccine, and 2 weeks after the third immunization, the mice were challenged with 1×10^5 CT26 colon cancer cells by subcutaneous injection (SC). The CT26 cancer cell line was maintained in the DMEM medium with 10% FBS 5% CO2 at 37 °C. […] Tumor growth was monitored daily, especially 7 days after the tumor challenge. […]
(§1) Enzyme-linked immunosorbent assay (ELISA) was performed per our lab standard procedure. […] After washing, the antibody was detected using 50 μl of 0.15% H2O2 in 24 mM of citric acid and 5 mM of the sodium phosphate buffer (pH5.2) with 0.5 mg/ml 2, […] (3-ethylbenzthiazole- 6-sulfonic acid, ABTS; Sigma, St. Louis, MO, USA) as the chromophore. […] Absorbance was read at 415 nm using an ELISA microplate reader (SPECTRAmax PLUS384; Molecular Devices, San Jose, CA, USA). The highest dilution at the cutoff absorbance 0.2 were determined as the antibody titer. […]
(In general: In an ELISA, binding on a coated surface is turned into a signal by an enzyme label.)

In another test the test system is cynomolgus monkeys. In words: ELISA antibody titers, monkey study No.00213515. The following applies: monkey 1st set, 0.5, 2, 5 mg/dose, 2-week interval, ISA 720. Format: in vivo, Macaca fascicularis. The procedure:
The non-human primate studies were carried out by the Charles River Laboratories (Ashland, OH USA). All the cynomolgus monkeys (Macaca fascicularis of Chinese origin) were obtained from Charles River Laboratories (Houston, TX, USA). In brief, the animals were approximately 2–4 years old and at the body weight between 2.2 and 3.1 kg at the initial dosing. The animals were kept at the temperature between 19°C and 24°C, humidity 30%–70%, and with 12 h light and 12 h dark light cycle. The Good manufacturing practice (GMP)-manufactured vaccine was used in the non-human primate study. […] Similar to mouse and dog dosing preparation, after the emulsion was prepared, a drop test was performed on each time of dosing to confirm that the emulsion had been prepared properly. […] All the animals’ body weights were monitored weekly after receiving. […]
as §1

“KLLSLIKGVIVHRLEGVEGPSLGAISLAPKAQIKESLRAEL [MVF-PD-1(92-110)]”: the “immunogenicity (summary)” value in the test on BALB/c mice is “High immunogenicity ( Figure 1C );”; in the test on cynomolgus monkeys, “high immunogenicity”.
